Experimental findings from patent publication US7897364B2, “Method for determining inhibitors of neurotrypsin” (University of Zurich, priority 2005, dated 2011) are described below.

The structures appear in SMILES notation. Entries after “also recorded” stand apart in the source; their conditions may differ.

The term IC50 denotes the concentration at which inhibition is half-maximal.

In assay [1] the target is T1, Factor Xa (Bos taurus, UniProt P00743).
T1 construct: purchased Sigma Aldrich Chemie GmbH; host or cells: bovine plasma
In words: Specificity test, photometric pNA peptide substrate assay: factor Xa. To be noted: 100 μM compound; substrate Bz-IEGR-pNA; 25° C. In kind it is biochemical, bovine. The method, then: (§1) To check the specificity of a compound found to have an inhibitory effect on human neurotrypsin, standard enzyme kinetic measurements with a set of common serine proteases were performed. A standard photometric assay with commercially available proteases and para-nitroanilide-coupled small peptide substrates was used.
Factor Xa activated from bovine plasma (6.1 mg protein/ml; Sigma Aldrich Chemie GmbH, D-89552 Steinheim, Germany).
Bz-IEGR-pNA: S-2222, Chromogenix-Instrumentation Laboratory SpA, 1-20128 Milano, Italy.
(§2) The assay was performed in 100 mM Tris-HCl, 150 mM NaCl, 1 mM CaCl2, 5% DMSO, 0.1% PEG 6000, pH 8.0, with the appropriate amount of protease to measure initial velocities and varying amounts of peptide-p-nitroanilide substrates in a range smaller than 0.1 times KM. For inhibition studies 100 μM compound No. 7 were used. Measurements were done at 25° C. in a Cary 50 Spectrophotometer (VARIAN). Initial velocities were determined using various substrate concentrations below 0.1 times KM to be in the range of direct dependency of the initial velocity from the substrate concentration. Initial velocities were plotted against substrate concentrations in the absence or the presence of the candidate inhibitor No. 7. The compound was used in a concentration of 100 μM.

Assay [2] deals with T2, neurotrypsin (Homo sapiens, UniProt P56730).
T2 construct: Human or murine neurotrypsin or catalytically active truncated versions of neurotrypsin are used; made in house; host or cells: mouse myeloma cell line J558L
T2 sequence (P56730 21-875): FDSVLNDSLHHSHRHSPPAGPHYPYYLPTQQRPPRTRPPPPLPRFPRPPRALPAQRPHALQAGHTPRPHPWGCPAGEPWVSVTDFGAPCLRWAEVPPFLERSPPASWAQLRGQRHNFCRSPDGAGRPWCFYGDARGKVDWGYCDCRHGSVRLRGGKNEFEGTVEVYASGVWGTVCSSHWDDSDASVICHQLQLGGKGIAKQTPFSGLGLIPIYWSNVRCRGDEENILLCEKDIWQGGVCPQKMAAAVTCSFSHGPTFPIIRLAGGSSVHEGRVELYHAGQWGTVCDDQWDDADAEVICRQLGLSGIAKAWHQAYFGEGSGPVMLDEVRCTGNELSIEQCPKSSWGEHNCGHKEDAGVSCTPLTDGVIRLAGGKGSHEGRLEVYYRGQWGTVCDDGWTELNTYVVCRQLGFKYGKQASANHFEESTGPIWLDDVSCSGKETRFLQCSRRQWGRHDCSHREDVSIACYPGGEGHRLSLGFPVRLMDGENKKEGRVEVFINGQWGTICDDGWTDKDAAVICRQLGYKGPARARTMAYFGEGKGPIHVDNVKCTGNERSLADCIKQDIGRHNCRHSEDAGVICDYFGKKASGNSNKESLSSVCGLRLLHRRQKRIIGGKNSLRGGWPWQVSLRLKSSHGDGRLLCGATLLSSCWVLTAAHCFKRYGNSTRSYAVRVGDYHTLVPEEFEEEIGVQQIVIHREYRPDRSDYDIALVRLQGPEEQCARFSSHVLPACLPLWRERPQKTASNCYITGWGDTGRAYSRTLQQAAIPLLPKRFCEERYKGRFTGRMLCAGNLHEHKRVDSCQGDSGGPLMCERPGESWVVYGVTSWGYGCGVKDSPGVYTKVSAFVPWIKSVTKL
In words: Western blot-based screening assay for neurotrypsin inhibitors (agrin-EGFP cleavage). In kind it is biochemical. To be noted: inhibitor 25 or 150 μM; agrin-EGFP substrate; 3 h at 37° C.; intensity of 150-kDa fragment on Western blot. The method, then:
Negative control (−): only agrin-EGFP without neurotrypsin. Positive control (+): agrin-EGFP with addition of neurotrypsin.
Compounds were dissolved in DMSO to a final concentration of 10 mM. For the assay the solution in DMSO was diluted with 10 mM MOPS, pH 7.5, to a concentration of 500 μM and 5% DMSO (1:20 dilution). Insoluble and precipitated material was removed by centrifugation (15 min, 16 krcf, RT). The cleared supernatant was used for the inhibition assay, as described in Example 27.
(§3) The inhibitory activity of small-molecule compounds on the catalytic activity of neurotrypsin is measured in 150 mM NaCl, 5 mM CaCl2, 5% DMSO, 0.1% PEG 6000, and 20 mM MOPS, pH 7.5 in 0.5 ml low protein-binding Eppendorf tubes in a total volume of 15 μl. Human or murine neurotrypsin or catalytically active truncated versions of neurotrypsin are used at a concentration that results in cleavage of 80% of the substrate within 3 hours. As substrate, engineered soluble agrin, for example 0.1-1 μM agrin-EGFP (Example 20) or 0.1-3 μM engineered agrin-C45 (Example 21), is used. […]
One way of substrate visualization is Western blotting. […] The intensity of the 150-kDa fragments of agrin-EGFP generated by neurotrypsin-mediated cleavage in the presence of the putative inhibitory compounds (FIG. 16 A) are measured and the relative intensities are plotted (FIG. 16 B).

Assay [3] has as its target T3, tPA (Homo sapiens, UniProt P00750).
T3 construct: purchased Dr. Karl Thomae GmbH Actilyse (10 mg)
The assay can be described thus: Specificity test, photometric pNA peptide substrate assay: tPA. The conditions noted are these: 100 μM compound; substrate IPR-pNA; 25° C. In kind it is biochemical. The method, then: as §1
tPA: Actilyse (10 mg; Dr. Karl Thomae GmbH, Birkendorfer Straβe 65, D-88397 Biberach, Germany).
IPR-pNA: S-2288, Chromogenix-Instrumentation Laboratory SpA.
as §2

Assay [4] deals with T4, Trypsin (Sus scrofa, UniProt P00761).
T4 construct: Trypsin from hog pancreas; purchased Fluka Chemie AG; host or cells: hog pancreas
In words: Specificity test, photometric pNA peptide substrate assay: trypsin. Type of assay: biochemical, hog. The conditions noted are these: 100 μM compound; substrate Bz-FVR-pNA; 25° C. The method, then:
as §1
Trypsin from hog pancreas (16099 U/mg; Fluka Chemie AG, CH-9471 Buchs, Switzerland).
(§4) Bz-FVR-pNA: N-Benzoyl-Phe-Val-Arg-p-nitroanilide HCl, Bachem AG, CH-4416 Bubendorf, Switzerland.
as §2

Assay [5] addresses T5, Urokinase (Homo sapiens, UniProt P00749).
T5 construct: purchased medac Gesellschaft für klinische Spezialpräparate mbH Urokinase HS medac (100000 I.E.)
The assay can be described thus: Specificity test, photometric pNA peptide substrate assay: urokinase. In kind it is biochemical. To be noted: 100 μM compound; substrate Bz-VGR-pNA; 25° C. The procedure: as §1
(§5) Thrombin from bovine plasma (50 NIH/mg, Merck, D-64271 Darmstadt, Germany). Urokinase HS medac (100000 I.E.; medac Gesellschaft für klinische Spezialpräparate mbH, D-22880 Wedel, Germany).
Bz-VGR-pNA: N-Benzoyl-Val-Gly-Arg-p-nitroanilide, Sigma Aldrich Chemie GmbH.
as §2

Assay [6] deals with T6, Thrombin (Bos taurus, UniProt P00735).
T6 construct: Thrombin from bovine plasma; purchased Merck; host or cells: bovine plasma
The assay can be described thus: Specificity test, photometric pNA peptide substrate assay: thrombin. In kind it is biochemical, bovine. The conditions noted are these: 100 μM compound; substrate Bz-FVR-pNA; 25° C. The method, then: as §1, §5, §4, §2

In assay [7] the target is T7, mouse neurotrypsin (Mus musculus, UniProt O08762).
T7 construct: made in house; host or cells: mouse myeloma cell line J558L
T7 sequence (O08762 22-761): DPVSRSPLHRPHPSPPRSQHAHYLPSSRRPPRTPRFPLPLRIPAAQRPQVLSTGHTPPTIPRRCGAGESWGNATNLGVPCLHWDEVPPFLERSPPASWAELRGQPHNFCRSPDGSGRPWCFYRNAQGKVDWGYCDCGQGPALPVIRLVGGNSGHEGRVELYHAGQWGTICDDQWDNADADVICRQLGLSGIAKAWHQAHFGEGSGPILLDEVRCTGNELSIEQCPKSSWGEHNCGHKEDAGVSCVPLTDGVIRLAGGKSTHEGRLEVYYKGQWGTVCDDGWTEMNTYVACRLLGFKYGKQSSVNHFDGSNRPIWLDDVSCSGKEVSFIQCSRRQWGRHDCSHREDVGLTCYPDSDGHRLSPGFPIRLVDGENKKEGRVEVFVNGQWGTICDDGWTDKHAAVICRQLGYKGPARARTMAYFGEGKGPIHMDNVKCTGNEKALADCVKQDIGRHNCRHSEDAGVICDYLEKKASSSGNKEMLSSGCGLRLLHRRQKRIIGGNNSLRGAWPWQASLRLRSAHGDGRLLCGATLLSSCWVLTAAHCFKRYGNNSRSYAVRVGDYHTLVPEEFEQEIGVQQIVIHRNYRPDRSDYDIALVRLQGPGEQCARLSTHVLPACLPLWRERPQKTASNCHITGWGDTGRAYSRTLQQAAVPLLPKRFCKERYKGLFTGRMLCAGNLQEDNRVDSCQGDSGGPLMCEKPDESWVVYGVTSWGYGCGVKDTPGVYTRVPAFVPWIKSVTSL
In words: Dose dependence of neurotrypsin inhibition (agrin-EGFP cleavage, Western blot). Type of assay: biochemical. To be noted: 0 to 200 μM compound; agrin-EGFP substrate; Western blot quantification; read-out: IC50 value (half-maximum amount of product).
Text: (A) Western blot detection of the 150 kDa C-terminal fragment of agrin (Ag-CF) generated by neurotrypsin-mediated cleavage of agrin-EGFP in dependence of the concentration of compound No. 7, N^1-amidino-N^4-(3,5-dibromosalicylidene)-sulfanilamide.
(B) Graphic plot of the intensity data from (A) against the inhibitor concentration with I=100% intensity for agrin+mouse neurotrypsin without addition of inhibitor compound No. 7.
as §3, with “used. Inhibitor solution in 10 mM MOPS, pH 7.5, containing 5% DMSO is added to a final concentration of either 25 or 150 μM.” for “used.”
Different concentrations of compound No. 7 from 0 to 200 μM were tested with the assay described in Example 27 with engineered agrin-EGFP as substrate. The generated product was detected by Western blot (FIG. 17 A) and quantified (FIG. 17 B).

In assay [8] the target is T8, Plasmin (Homo sapiens, UniProt P00747).
T8 construct: Plasmin from human plasma; purchased Sigma Aldrich Chemie GmbH; host or cells: human plasma
In words: Specificity test, photometric pNA peptide substrate assay: plasmin. The conditions noted are these: 100 μM compound; substrate N-Tosyl-GPK-pNA; 25° C. Type of assay: biochemical. The procedure:
as §1
(§6) Kallikrein from porcine pancreas (43 U/mg solid; Sigma Aldrich Chemie GmbH). Plasmin from human plasma (3.2 U/mg solid; Sigma Aldrich Chemie GmbH).
N-Tosyl-GPK-pNA: N-Tosyl-Gly-Pro-Lys-p-nitroanilide, #90178, Fluka Chemie AG.
as §2

The target of assay [9] is T9, Kallikrein (Sus scrofa, UniProt P00752).
T9 construct: Kallikrein from porcine pancreas; purchased Sigma Aldrich Chemie GmbH; host or cells: porcine pancreas
In words: Specificity test, photometric pNA peptide substrate assay: kallikrein. Type of assay: biochemical, porcine. To be noted: 100 μM compound; substrate Bz-FVR-pNA; 25° C. The procedure: as §1, §6, §4, §2

T1 sequence (P00743 234-492 limits assumed): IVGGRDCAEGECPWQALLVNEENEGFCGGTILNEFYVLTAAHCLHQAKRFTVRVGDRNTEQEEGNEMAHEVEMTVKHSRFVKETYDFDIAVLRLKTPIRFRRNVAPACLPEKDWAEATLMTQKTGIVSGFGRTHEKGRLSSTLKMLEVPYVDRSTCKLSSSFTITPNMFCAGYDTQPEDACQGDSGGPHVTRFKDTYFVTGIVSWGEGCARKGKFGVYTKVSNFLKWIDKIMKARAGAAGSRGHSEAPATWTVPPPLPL
T1 sequence (P00743 41-180 limits assumed): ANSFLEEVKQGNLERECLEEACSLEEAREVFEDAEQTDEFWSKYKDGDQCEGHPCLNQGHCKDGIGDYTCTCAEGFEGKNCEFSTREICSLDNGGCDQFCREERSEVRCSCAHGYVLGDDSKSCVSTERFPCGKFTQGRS
T9 sequence (P00752 8-246): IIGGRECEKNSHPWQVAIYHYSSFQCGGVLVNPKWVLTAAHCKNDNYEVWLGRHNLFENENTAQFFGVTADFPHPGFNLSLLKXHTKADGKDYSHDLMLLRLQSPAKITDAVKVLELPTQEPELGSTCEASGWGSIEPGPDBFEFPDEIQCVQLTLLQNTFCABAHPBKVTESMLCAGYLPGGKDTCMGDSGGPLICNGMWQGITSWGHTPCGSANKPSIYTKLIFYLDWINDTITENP
T8 sequence (P00747 581-810 limits assumed): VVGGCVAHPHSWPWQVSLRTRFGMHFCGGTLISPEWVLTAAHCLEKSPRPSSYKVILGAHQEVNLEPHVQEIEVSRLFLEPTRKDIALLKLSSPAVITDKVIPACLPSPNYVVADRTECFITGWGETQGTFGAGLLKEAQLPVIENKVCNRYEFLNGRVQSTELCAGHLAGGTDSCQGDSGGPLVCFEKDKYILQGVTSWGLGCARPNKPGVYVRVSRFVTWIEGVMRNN
T8 sequence (P00747 97-580 limits assumed): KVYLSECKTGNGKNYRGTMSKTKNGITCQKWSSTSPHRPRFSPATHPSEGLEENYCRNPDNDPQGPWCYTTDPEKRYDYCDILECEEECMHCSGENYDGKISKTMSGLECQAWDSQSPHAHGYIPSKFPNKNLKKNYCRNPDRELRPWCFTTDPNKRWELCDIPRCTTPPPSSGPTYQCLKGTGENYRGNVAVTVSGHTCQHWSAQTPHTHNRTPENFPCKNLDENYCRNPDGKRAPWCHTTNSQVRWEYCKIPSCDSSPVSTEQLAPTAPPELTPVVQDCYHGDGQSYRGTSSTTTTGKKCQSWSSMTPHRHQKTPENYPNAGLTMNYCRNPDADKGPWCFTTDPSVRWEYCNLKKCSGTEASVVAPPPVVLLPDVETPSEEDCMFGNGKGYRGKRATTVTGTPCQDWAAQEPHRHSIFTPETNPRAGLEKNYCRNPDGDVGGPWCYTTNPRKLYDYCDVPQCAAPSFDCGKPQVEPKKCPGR
T3 sequence (P00750 36-562): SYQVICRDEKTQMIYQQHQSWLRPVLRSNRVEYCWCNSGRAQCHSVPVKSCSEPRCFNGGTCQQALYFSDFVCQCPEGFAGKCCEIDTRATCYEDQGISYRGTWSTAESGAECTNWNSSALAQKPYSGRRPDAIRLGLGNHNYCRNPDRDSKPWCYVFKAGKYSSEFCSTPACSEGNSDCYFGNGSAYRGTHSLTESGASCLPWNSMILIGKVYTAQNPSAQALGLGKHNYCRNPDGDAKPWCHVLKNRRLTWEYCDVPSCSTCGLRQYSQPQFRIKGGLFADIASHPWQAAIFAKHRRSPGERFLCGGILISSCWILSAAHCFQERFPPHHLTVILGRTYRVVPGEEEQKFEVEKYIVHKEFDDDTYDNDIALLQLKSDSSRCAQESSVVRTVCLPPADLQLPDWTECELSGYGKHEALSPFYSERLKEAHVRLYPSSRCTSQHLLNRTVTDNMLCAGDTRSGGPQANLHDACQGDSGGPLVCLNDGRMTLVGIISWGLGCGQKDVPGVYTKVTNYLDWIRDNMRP
T4 sequence (P00761 9-231): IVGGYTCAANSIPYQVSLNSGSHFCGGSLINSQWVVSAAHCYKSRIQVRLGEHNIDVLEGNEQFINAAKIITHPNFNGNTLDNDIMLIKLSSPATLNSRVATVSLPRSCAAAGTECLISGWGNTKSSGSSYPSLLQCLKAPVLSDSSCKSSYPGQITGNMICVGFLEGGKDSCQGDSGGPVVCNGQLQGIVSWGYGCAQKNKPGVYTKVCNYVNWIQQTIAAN

Take `N=C(N)NS(=O)(=O)c1ccc(N=Cc2cc(Br)cc(Br)c2O)cc1` [Compound No. 7, N^1-amidino-N^4-(3,5-dibromosalicylidene)-sulfanilamide]: in assay [1], the “inhibition of factor Xa (initial velocities)” value was “None of the investigated enzymes showed a significant inhibition; also recorded: No inhibition”. Moreover, the “inhibitory activity on neurotrypsin” value in assay [2] was “significant inhibitory activity”. Moreover, the “inhibition of tPA (initial velocities)” value in [3] was “None of the investigated enzymes showed a significant inhibition; also recorded: No inhibition”. Also, in assay [4], the “inhibition of trypsin (initial velocities)” value is “None of the investigated enzymes showed a significant inhibition; also recorded: No inhibition”. Moreover, the “inhibition of urokinase (initial velocities)” value in assay [5] is on record as “None of the investigated enzymes showed a significant inhibition; also recorded: No inhibition”. Besides, the “inhibition of thrombin (initial velocities)” value in assay [6] is listed as “None of the investigated enzymes showed a significant inhibition; also recorded: No inhibition”. Further, the IC50 in assay [7] was around 60 µM. Besides, in assay [8], the “inhibition of plasmin (initial velocities)” value is listed as “None of the investigated enzymes showed a significant inhibition; also recorded: No inhibition”. Moreover, the “inhibition of kallikrein (initial velocities)” value in assay [9] is “None of the investigated enzymes showed a significant inhibition; also recorded: No inhibition”.
